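Results reflect a 48-hour exposure of cells in 96-well plates to compound at five concentrations. GI50 marks 50% less growth.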 The source made the active and inactive calls. Cut-off read from the data, not from the text of the source: active = GI50 up to about 1.1 µM and inactive = higher.
Tests used:
Assay in all cases: inhibition of tumour cell growth, NCI panel, 48 h
TK-10 = system: TK-10
RXF 393 = system: RXF 393
SK-MEL-5 = system: SK-MEL-5
NCI-H23 = system: NCI-H23
SN12C = system: SN12C
HOP-62 = system: HOP-62
A498 = system: A498
SK-OV-3 = system: SK-OV-3
K562 = system: K562
SF-268 = system: SF-268
CCRF-CEM = system: CCRF-CEM
SF-539 = system: SF-539
IGROV-1 = system: IGROV-1
M14 = system: M14
CAKI-1 = system: CAKI-1
HCT-116 = system: HCT-116
MOLT-4 = system: MOLT-4
UACC-257 = system: UACC-257
ACHN = system: ACHN
HCT-15 = system: HCT-15

SMILES	GI50 (TK-10)	GI50 (RXF 393)	GI50 (SK-MEL-5)	GI50 (NCI-H23)	GI50 (SN12C)	GI50 (HOP-62)	GI50 (A498)	GI50 (SK-OV-3)	GI50 (K562)	GI50 (SF-268)	GI50 (CCRF-CEM)	GI50 (SF-539)	GI50 (IGROV-1)	GI50 (M14)	GI50 (CAKI-1)	GI50 (HCT-116)	GI50 (MOLT-4)	GI50 (UACC-257)	GI50 (ACHN)	GI50 (HCT-15)
O=C(Nc1cccc([N+](=O)[O-])c1)C(=O)C(C(=O)c1ccccc1F)C1OC(=O)C2C=CC=CC21 (stereo not given)	> 100 µM (inactive)	18.5 µM (inactive)	73.1 µM (inactive)	25.1 µM (inactive)	30.1 µM (inactive)	50.9 µM (inactive)	96.6 µM (inactive)	41.3 µM (inactive)	31.8 µM (inactive)	19.7 µM (inactive)	27.3 µM (inactive)	24 µM (inactive)	53.8 µM (inactive)	38 µM (inactive)	59.2 µM (inactive)	19.4 µM (inactive)	32 µM (inactive)	82 µM (inactive)	49.4 µM (inactive)	27.5 µM
O=C1Nc2ccccc2N/C1=C\C(=O)C(F)F	> 100 µM (inactive)	> 100 µM (inactive)	> 100 µM (inactive)	> 100 µM (inactive)	> 100 µM (inactive)	> 100 µM (inactive)	> 100 µM (inactive)	> 100 µM (inactive)	> 100 µM (inactive)	> 100 µM (inactive)	> 100 µM (inactive)	> 100 µM (inactive)	> 100 µM (inactive)	> 100 µM (inactive)	> 100 µM (inactive)	> 100 µM (inactive)	> 100 µM (inactive)	> 100 µM (inactive)	> 100 µM (inactive)	> 100 µM
